Results as given in patent US20190282498A1, “FREEZE-DRIED PROBIOTIC FOODSTUFFS” (IMAGILIN TECHNOLOGY, LLC, priority 2018, published 2019).

Tested on: E. coli
Assay: Survival of E. coli with amoxicillin (comparison, data not shown)
Type: cell-based
Details: 500 μg/ml of amoxicillin
Procedure: In order to determine whether freeze-drying interfered with this antibiotic compatibility, Pediococcus probiotic freeze-dried products were exposed amoxicillin at 10 μg/ml, 50 μg/ml, 100 μg/ml, and 500 μg/ml, and incubated at 45° C. for […] to see if any survival of Pediococcus acidilactici NRRL B-50517. […] For comparison, E. coli had 0% survival at 500 μg/ml of amoxicillin (data not shown).

CC1(C)S[C@@H]2[C@H](NC(=O)[C@H](N)c3ccc(O)cc3)C(=O)N2[C@H]1C(=O)O [amoxicillin]
survival of E. coli: 0%
